Assays:
human CB2 receptors = human CB2 receptors (Homo sapiens (Human), UniProt P34972); assay: functional cAMP assay, CHO cells expressing human CB2 receptors; assay type: cell-based
Outline: (§1)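 CHO-hCB1/hCB2 cells, KRB + 1 mM IBMX preincubation 30 min 30 °C; cpd 30 min 30 °C; lysis + TR-FRET cAMP detection, 2 h RT; cAMP from std curve; EC50.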

human CB1 receptors = human CB1 receptors (Homo sapiens (Human), UniProt P21554); assay: functional cAMP assay, CHO cells expressing human CB1 receptors; assay type: cell-based
Outline: as §1

Chain of human CB1 receptors (P21554 whole entry): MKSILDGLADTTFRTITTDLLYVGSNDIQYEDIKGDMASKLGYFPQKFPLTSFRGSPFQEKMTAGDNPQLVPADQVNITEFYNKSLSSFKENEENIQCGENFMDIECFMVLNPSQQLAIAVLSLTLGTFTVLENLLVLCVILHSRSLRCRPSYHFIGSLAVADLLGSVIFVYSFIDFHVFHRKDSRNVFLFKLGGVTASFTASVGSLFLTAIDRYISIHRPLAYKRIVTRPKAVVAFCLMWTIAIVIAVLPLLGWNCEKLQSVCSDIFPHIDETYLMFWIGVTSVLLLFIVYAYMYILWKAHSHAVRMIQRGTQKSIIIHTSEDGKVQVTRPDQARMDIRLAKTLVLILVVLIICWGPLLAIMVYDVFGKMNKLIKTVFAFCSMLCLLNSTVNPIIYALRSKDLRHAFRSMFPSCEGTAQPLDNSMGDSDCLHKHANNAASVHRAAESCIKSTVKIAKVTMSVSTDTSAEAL
Chain of human CB2 receptors (P34972 whole entry): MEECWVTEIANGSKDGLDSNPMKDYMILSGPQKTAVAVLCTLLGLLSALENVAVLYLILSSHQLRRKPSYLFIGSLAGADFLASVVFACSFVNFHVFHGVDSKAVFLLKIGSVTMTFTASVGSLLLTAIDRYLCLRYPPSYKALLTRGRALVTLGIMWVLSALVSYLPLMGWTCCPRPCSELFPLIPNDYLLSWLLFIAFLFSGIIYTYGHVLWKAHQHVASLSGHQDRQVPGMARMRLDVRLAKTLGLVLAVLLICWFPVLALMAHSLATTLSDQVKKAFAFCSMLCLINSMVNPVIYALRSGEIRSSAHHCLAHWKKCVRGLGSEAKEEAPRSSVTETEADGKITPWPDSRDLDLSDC

SMILES	EC50 (human CB2 receptors) [nM]	EC50 (human CB1 receptors) [nM]
NC(=O)[C@@H]1CS(=O)(=O)CN1C(=O)c1ccc(C2CC2)c(OCC2CC2)n1 [Example 115, (−)-3-(5-Cyclopropyl-6-cyclopropylmethoxy-pyridine-2-carbonyl)-1,1-dioxo-1λ^6-thiazolidine-4-carboxylic acid amide]	7.2	> 10000
NC(=O)[C@H]1CS(=O)(=O)CN1C(=O)c1ccc(C2CC2)c(OCC2CC2)n1 [Example 117, (+)-3-(5-Cyclopropyl-6-cyclopropylmethoxy-pyridine-2-carbonyl)-1,1-dioxo-1λ^6-thiazolidine-4-carboxylic acid amide]	485	> 10000
O=C(c1ccc(N2CC(F)(F)C2)c(OCC2CC2)n1)N1CC(F)(F)C(F)(F)C1 [Example 118, [6-Cyclopropylmethoxy-5-(3,3-difluoro-azetidin-1-yl)-pyridin-2-yl]-(3,3,4,4-tetrafluoro-pyrrolidin-1-yl)-methanone]	13.2	> 10000
CC1CN(C(=O)c2ccc(N3CC(F)(F)C3)c(OCC3CC3)n2)CC(C)O1 (stereo not drawn) [Example 119, [6-Cyclopropylmethoxy-5-(3,3-difluoro-azetidin-1-yl)-pyridin-2-yl]-(2,6-dimethyl-morpholin-4-yl)-methanone]	599	> 10000
CC1(C)SCN(C(=O)c2ccc(N3CC(F)(F)C3)c(OCC3CC3)n2)[C@@H]1C(N)=O [Example 120, (R)-3-[6-Cyclopropylmethoxy-5-(3,3-difluoro-azetidin-1-yl)-pyridine-2-carbonyl]-5,5-dimethyl-thiazolidine-4-carboxylic acid amide]	42	> 10000
CC1(C)CC[C@@H](C(N)=O)N1C(=O)c1ccc(N2CC(F)(F)C2)c(OCC2CC2)n1 [Example 121, (S)-1-[6-Cyclopropylmethoxy-5-(3,3-difluoro-azetidin-1-yl)-pyridine-2-carbonyl]-5,5-dimethyl-pyrrolidine-2-carboxylic acid amide]	112	> 10000
NC(=O)C1CSCN1C(=O)c1ccc(N2CC(F)(F)C2)c(OCC2CC2)n1 (stereo not drawn) [Example 122, 3-[6-Cyclopropylmethoxy-5-(3,3-difluoro-azetidin-1-yl)-pyridine-2-carbonyl]-thiazolidine-4-carboxylic acid amide]	50	> 10000
NC(=O)[C@@H]1C[C@@H](F)CN1C(=O)c1ccc(C2CC2)c(OCC2CC2)n1 [Example 123, (2S,4R)-1-[5-Cyclopropyl-6-(cyclopropylmethoxy)pyridine-2-carbonyl]-4-fluoropyrrolidine-2-carboxamide]	58.4	> 10000
NC(=O)C1C[S+]([O-])CN1C(=O)c1ccc(N2CC(F)(F)C2)c(OCC2CC2)n1 (stereo not drawn) [Example 124, 3-[6-(Cyclopropylmethoxy)-5-(3,3-difluoroazetidin-1-yl)pyridine-2-carbonyl]-1-oxo-1,3-thiazolidine-4-carboxamide]	52.6	> 10000
NC(=O)C1CS(=O)(=O)CN1C(=O)c1ccc(N2CC(F)(F)C2)c(OCC2CC2)n1 (stereo not drawn) [Example 125, 3-[6-(Cyclopropylmethoxy)-5-(3,3-difluoroazetidin-1-yl)pyridine-2-carbonyl]-1,1-dioxo-1,3-thiazolidine-4-carboxamide]	9.5	> 10000
NC(=O)[C@@H]1C[C@@H](F)CN1C(=O)c1ccc(N2CC(F)(F)C2)c(OCC2CC2)n1 [Example 126, (2S,4R)-1-[6-(Cyclopropylmethoxy)-5-(3,3-difluoroazetidin-1-yl)pyridine-2-carbonyl]-4-fluoropyrrolidine-2-carboxamide]	40	> 10000
NC(=O)[C@@H]1CS(=O)(=O)CN1C(=O)c1ccc(N2CC(F)(F)C2)c(OCC2CC2)n1 [Example 127, (−)-3-[6-(Cyclopropylmethoxy)-5-(3,3-difluoroazetidin-1-yl)pyridine-2-carbonyl]-1,1-dioxo-1,3-thiazolidine-4-carboxamide]	3.4	> 10000
